Test results as given in a compilation of properties of binary mixtures (doi:10.1590/0104-6632.20180352s20160280).

Assay: xn = mol fraction of the nth substance listed
Conditions: 100 kPa

Work on `O` + O=C[O-].OCC[NH2+]CCO yielded a viscosity (293.15 K, x2 = 0) of 1 mPa·s, a viscosity (303.15 K, x2 = 0) of 0.82 mPa·s and a viscosity (333.15 K, x2 = 0) of 0.5 mPa·s. It also gave a viscosity (343.15 K, x2 = 0) of 0.451 mPa·s.
`O=C[O-].OCC[NH2+]CCO` + O showed a viscosity (293.15 K, x1 = 0.0292) of 1.69 mPa·s, a viscosity (293.15 K, x1 = 0.1516) of 8.2 mPa·s and a viscosity (293.15 K, x1 = 0.2184) of 16.1 mPa·s. The viscosity (293.15 K, x1 = 0.5155) was 112 mPa·s, the viscosity (293.15 K, x1 = 0.5932) was 133 mPa·s and the viscosity (293.15 K, x1 = 0.7378) was 243 mPa·s. For the same molecule, the viscosity (293.15 K, x1 = 0.7987) was 329 mPa·s, the viscosity (303.15 K, x1 = 0.075) was 2.5 mPa·s and the viscosity (303.15 K, x1 = 0.1516) was 5.9 mPa·s. For the same molecule, the viscosity (303.15 K, x1 = 0.2184) was 11 mPa·s, the viscosity (303.15 K, x1 = 0.3185) was 23.2 mPa·s and the viscosity (303.15 K, x1 = 0.5155) was 65 mPa·s. For the same molecule, the viscosity (303.15 K, x1 = 0.5932) was 76 mPa·s, the viscosity (303.15 K, x1 = 0.7378) was 132 mPa·s and the viscosity (303.15 K, x1 = 1) was 242 mPa·s. For the same molecule, the viscosity (313.15 K, x1 = 0.0292) was 1.1 mPa·s, the viscosity (313.15 K, x1 = 0.1516) was 4.48 mPa·s and the viscosity (313.15 K, x1 = 0.2184) was 8 mPa·s. For the same molecule, the viscosity (313.15 K, x1 = 0.3185) was 15.8 mPa·s, the viscosity (313.15 K, x1 = 0.5155) was 40.7 mPa·s and the viscosity (313.15 K, x1 = 0.5932) was 46.6 mPa·s. For the same molecule, the viscosity (313.15 K, x1 = 0.7378) was 77 mPa·s, the viscosity (313.15 K, x1 = 0.7987) was 99 mPa·s and the viscosity (313.15 K, x1 = 1) was 135 mPa·s. The viscosity (323.15 K, x1 = 0.0292) was 0.93 mPa·s, the viscosity (323.15 K, x1 = 0.075) was 1.64 mPa·s and the viscosity (323.15 K, x1 = 0.1516) was 3.51 mPa·s. The viscosity (323.15 K, x1 = 0.2184) was 6 mPa·s, the viscosity (323.15 K, x1 = 0.3185) was 11.3 mPa·s and the viscosity (323.15 K, x1 = 0.5155) was 27.1 mPa·s. For the same molecule, the viscosity (323.15 K, x1 = 0.5932) was 30.6 mPa·s, the viscosity (323.15 K, x1 = 0.7378) was 49 mPa·s and the viscosity (323.15 K, x1 = 0.7987) was 61 mPa·s. For the same molecule, the viscosity (323.15 K, x1 = 1) was 82 mPa·s, the viscosity (333.15 K, x1 = 0.0292) was 0.8 mPa·s and the viscosity (333.15 K, x1 = 0.075) was 1.38 mPa·s. It also gave a viscosity (333.15 K, x1 = 0.1516) of 2.82 mPa·s, a viscosity (333.15 K, x1 = 0.2184) of 4.68 mPa·s and a viscosity (333.15 K, x1 = 0.5155) of 19 mPa·s. For the same molecule, the viscosity (333.15 K, x1 = 0.5932) was 21.2 mPa·s, the viscosity (333.15 K, x1 = 0.7378) was 32.8 mPa·s and the viscosity (333.15 K, x1 = 1) was 53 mPa·s. The viscosity (343.15 K, x1 = 0.0292) was 0.7 mPa·s, the viscosity (343.15 K, x1 = 0.075) was 1.18 mPa·s and the viscosity (343.15 K, x1 = 0.1516) was 2.33 mPa·s. It also gave a viscosity (343.15 K, x1 = 0.2184) of 3.75 mPa·s, a viscosity (343.15 K, x1 = 0.3185) of 6.5 mPa·s and a viscosity (343.15 K, x1 = 0.5155) of 13.9 mPa·s. The viscosity (343.15 K, x1 = 0.7378) was 23 mPa·s and the viscosity (343.15 K, x1 = 0.7987) was 27.8 mPa·s.
